Results from PubChem BioAssay AID2060605 (Molecular Pharmacology Branch, DTP, NCI, 2025).
Several values for one entry are separate records, joined by “and”; a condition that tells them apart may be missing. Identical values can stand only once.

Test system: 947758-054-R-J2-PDC spheroid growth, percent test/control
Assay: Anticancer human tumor 947758-054-R-J2-PDC patient-derived colon adenocarcinoma cell line growth inhibition [CLK]
Settings: spheroids with HUVEC and MSC; for viability, T/C: stronger effect = lower value
Excerpt: A high-throughput screen of multi-cell type tumor spheroids was designed to identify active combinations of […] and targeted small molecules. Complex spheroids include a stromal component modeled by human endothelial cells (HUVEC) and fibroblasts modeled by human mesenchymal stem cells (MSCs). The concentration ranges selected for each drug and investigational agent were based upon clinically achievable concentrations if the clinical Cmax of the agent was known.
Compounds. The drugs and investigational agents: cirtuvivint (SM08502; NSC835563), CC-671 (NSC850746), vemurafenib (NSC761431), tapotoclax (NSC804041), sotorasib (NSC818433), adagrasib (NSC831453), MRTX-1133 (NSC836407), BAY2416964 (NSC825713), copanlisib (NSC816437), inavolisib (NSC800729), abemaciclib (NSC768073), osimertinib (NSC779217), entinostat (NSC756642), eltanexor (KPT-8602, NSC794443), venetoclax (NSC766270), ceralasertib (NSC777638), bortezomib (NSC756655), olaparib (NSC753686), talazoparib (NSC767125), alisertib (NSC759677), peposertib (NSC802822), gemcitabine (NSC613327), 5-fluorouracil (NSC19893), SN-38 (NSC673596), oxaliplatin (NSC266046), paclitaxel (NSC125973), and doxorubicin (NSC123127), were obtained from the National Cancer Institute (NCI) Developmental Therapeutics Program Chemical Repository. The FDA-approved anticancer drug set is available from the Developmental Therapeutics Program at https://dtp.cancer.gov/organization/dscb/obtaining/available plates.htm. […] The stock solutions were prepared in dimethyl sulfoxide (DMSO, Sigma-Aldrich, St. Louis, MO, cat. D2650), except for the platinum complexes which were prepared in saline (Quality Biological, Gaithersburg, MD, cat. 114-055-101), at 800-fold the tested concentration and stored at -70 degrees C prior to their use. All drugs and investigational agents were tested over a range starting from a high concentration at or near the clinical Cmax and decreasing in half-log increments. If the clinical Cmax for an agent had not been determined, the highest concentration tested was 10 microM.
Cell Culture. All cells were maintained in an incubator at 37 degrees C and 5% CO2 with 95% humidity. The PDC lines were cultured according to standard operating procedures established by the NCI PDMR. Briefly, all PDCs were thawed and cultured in Matrigel-coated flasks prepared with a working solution of 1X Ham's F-12 nutrient mix, without supplementation (Invitrogen, Waltham, MA, cat. 11765054), 100 U/mL penicillin-streptomycin (Invitrogen, cat. 15140122), and 2.5% Matrigel (Corning Inc., Corning, NY, cat. 354248) for the first three passages. The 947758-054-R-J2-PDC line was cultured in 6B/Colon 1A media, which includes advanced DMEM/F-12 (Thermo Fisher Scientific, cat. 12634028), 10 mM HEPES (Thermo Fisher Scientific, cat. 15630080), 1X GlutaMAX supplement (Thermo Fisher Scientific, cat. 35050061), 0.1 mg/mL primocin (InvivoGen, cat. ant-pm-2), 10% defined fetal bovine serum, heat inactivated (HyClone Laboratories Inc., cat. SH30070.03HI), 1.25 mM N-Acetyl-L-cysteine (Sigma-Aldrich, cat. A9165), 10 mM nicotinamide (Sigma-Aldrich, cat. N0636), 1X B-27 supplement (Thermo Fisher Scientific, cat. 17504044), 1X N-2 supplement (Thermo Fisher Scientific, cat. 17502048), and 10 microM Y-27632 dihydrochloride (Tocris Bioscience, cat. 1254). The 876862-298-R-J1-PDC was cultured in 6E media, which includes all 6B/Colon 1A media components plus 50% L-WRN conditioned media (ATCC, cat. CRL-3276), 50 ng/mL recombinant human EGF recombinant protein (hEGF; Thermo Fisher Scientific, cat. PHG0311), 10 ng/mL recombinant human fibroblast growth factor 10 (hGFG-10; PeproTech, cat. 100-26), 1 ng/mL recombinant human fibroblast growth factor 2 (hFGF-2; PeproTech, cat. 100-18B), and 1 µM prostaglandin E2 (PGE2; Tocris, cat. 2296). The 227483-062-R1-J1-PDC line was cultured in Panc media, containing all 6E components except hFGF-2, with the addition of 500 nM SB-431542 (Selleckchem, cat. S1067) and 10 nM gastrin (Tocris, cat. 3006). […]
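Also: spheroids exposed to compounds for one week before readout.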
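For viability, T/C in this document: 100% = DMSO vehicle control wells.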

Cn1ncnc1[C@H]1c2n[nH]c(=O)c3cc(F)cc(c23)N[C@@H]1c1ccc(F)cc1
viability, T/C (compound 0.000316 µM): 90.1% and 87.9%
viability, T/C (compound 0.001 µM): 103% and 93.8%
viability, T/C (compound 0.00316 µM): 96.8% and 101%
viability, T/C (compound 0.01 µM): 96.7% and 94.4%
viability, T/C (compound 0.0316 µM): 117% and 87.6%
viability, T/C (compound 0.1 µM): 130% and 119%
IC50 (curve of compound): > 100 nM

O=c1[nH]cc(F)c(=O)[nH]1 + CNC(=O)c1ccc(Nc2nc(OC3CCCC3)c3c(-c4ccc5nc(C)oc5c4)c[nH]c3n2)c(OC)c1
IC50 (curve of first compound, second compound 0.0316 µM): 969 nM
IC50 (curve of first compound, second compound 0.1 µM): 892 nM
IC50 (curve of first compound, second compound 0.316 µM): 557 nM
IC50 (curve of first compound, second compound 1 µM): < 31.6 nM
IC50 (curve of first compound, second compound 3.16 µM): < 31.6 nM
IC50 (curve of first compound, second compound 10 µM): < 31.6 nM
viability, T/C (second compound 0.0316 µM, first compound 0.0316 µM): 97.2%
viability, T/C (second compound 0.0316 µM, first compound 0.1 µM): 85.4%
viability, T/C (second compound 0.0316 µM, first compound 0.316 µM): 84.2%
viability, T/C (second compound 0.0316 µM, first compound 1 µM): 47.2%
viability, T/C (second compound 0.0316 µM, first compound 3.16 µM): 38.4%
viability, T/C (second compound 0.0316 µM, first compound 10 µM): 28%
viability, T/C (second compound 0.1 µM, first compound 0.0316 µM): 81.3%
viability, T/C (second compound 0.1 µM, first compound 0.1 µM): 79.1%
viability, T/C (second compound 0.1 µM, first compound 0.316 µM): 88%
viability, T/C (second compound 0.1 µM, first compound 1 µM): 46.3%
viability, T/C (second compound 0.1 µM, first compound 3.16 µM): 31%
viability, T/C (second compound 0.1 µM, first compound 10 µM): 22%
viability, T/C (second compound 0.316 µM, first compound 0.0316 µM): 79.8%
viability, T/C (second compound 0.316 µM, first compound 0.1 µM): 79.4%
viability, T/C (second compound 0.316 µM, first compound 0.316 µM): 51.4%
viability, T/C (second compound 0.316 µM, first compound 1 µM): 44.3%
viability, T/C (second compound 0.316 µM, first compound 3.16 µM): 27.7%
viability, T/C (second compound 0.316 µM, first compound 10 µM): 16.7%
viability, T/C (second compound 1 µM, first compound 0.0316 µM): 47.4%
viability, T/C (second compound 1 µM, first compound 0.1 µM): 40.3%
viability, T/C (second compound 1 µM, first compound 0.316 µM): 52.8%
viability, T/C (second compound 1 µM, first compound 1 µM): 31.2%
viability, T/C (second compound 1 µM, first compound 3.16 µM): 20.6%
viability, T/C (second compound 1 µM, first compound 10 µM): 13.2%
viability, T/C (second compound 3.16 µM, first compound 0.0316 µM): 42.6%
viability, T/C (second compound 3.16 µM, first compound 0.1 µM): 25%
viability, T/C (second compound 3.16 µM, first compound 0.316 µM): 38.6%
viability, T/C (second compound 3.16 µM, first compound 1 µM): 26.1%
viability, T/C (second compound 3.16 µM, first compound 3.16 µM): 16.8%
viability, T/C (second compound 3.16 µM, first compound 10 µM): 11.8%
viability, T/C (second compound 10 µM, first compound 0.0316 µM): 36.2%
viability, T/C (second compound 10 µM, first compound 0.1 µM): 24.6%
viability, T/C (second compound 10 µM, first compound 0.316 µM): 35.9%
viability, T/C (second compound 10 µM, first compound 1 µM): 22.1%
viability, T/C (second compound 10 µM, first compound 3.16 µM): 12.2%
viability, T/C (second compound 10 µM, first compound 10 µM): 13.2%
